Measurements published in patent US9045484B2, “Inhibitors of the BMP signaling pathway” (The Brigham and Women's Hospital, Inc., priority 2008, dated 2015).
Where a name gives a salt, the structure may show the parent alone. Read-outs that look alike come from different tables or passages of the source. Values belong to the compound of their own block, whether it stands above or below them.

Key:
[1] = tested on: BMP-induced phosphorylation of SMAD1/5/8; experiment: BMP4-induced phosphorylation of SMAD1/5/8, cytoblot (cellular ELISA); format: cell-based, murine; details: Mus musculus
Description: Murine pulmonary artery smooth muscle cells were isolated, explanted and cultured as previously described (see […] et al. Am. J. Physiol. Lung Cell Mol. Physiol. 280:[…], 2001) and then grown to confluence in 96 well tissue culture plates. Cells were incubated in serum-free medium for 18 h, and then incubated with recombinant BMP2, BMP4, BMP6, BMP9, GDF5, TGF-β, or Activin A ligands (R&D Systems, Minneapolis, Minn.) at varying concentrations in duplicate for 20 minutes. […] Specificity for BMP-mediated signaling was determined separately using a modification of the cellular ELISA technique assaying for the activation of SMAD2 or SMAD3 via TGF-β, or Activin A. A corresponding IC50 was calculated for the effects of these compounds upon those signaling pathways.

[2] = tested on: PDGFR-mediated signaling; experiment: PDGF-induced AKT phosphorylation, cellular ELISA in PaSMCs; format: cell-based, murine; details: Mus musculus, PASMC; compounds 10 min, then PDGF 30 min; FIG. 2; read-out: functional IC50, PDGF-induced AKT phosphorylation
Description: To test the relative effects of dorsomorphin and structurally-related compounds upon PDGFR-mediated signaling, PDGF-induced AKT phosphorylation was measured by cellular ELISA via the detection of phospho-AKT in PaSMCs treated with compounds for 10 min. followed by PDGF for 30 min.

[3] = Serum iron levels (Ferene S assay) after IP injections; format: in vivo, C57BL/6 mice; details: two IP injections 10 mg/kg 12 h apart; 24 h after first injection
Description: In C57BL/6 mice, two IP injections of dorsomorphin (10 mg/kg) 12 h apart increased serum iron levels, measured by the Ferene S assay (ThermoFisher Scientific, Waltham, Mass.) measured 24 h after first injection by over 60%. (see FIG. 4; n=8 vehicle, n=7 dorsomorphin, P<0.001). Results are expressed as mean±SD.

[4] = Microsomal stability in pooled mouse liver microsomes; format: in vitro ADME; details: 0.5 mg/mL microsome protein, 1 mM NADPH
Description: Test compound (3 μM final concentration) along with 0.5 mg/mL microsome protein and 1 mM NADPH was incubated for 0, 5, 15, 30 and 60 min. Incubation of test compound and microsomes in the absence of NADPH served as a negative control. The samples were quenched with methanol and centrifuged for 20 min at 2500 rpm to precipitate proteins. Sample supernatants were analyzed (N=3) by LC/MS. The ln peak area ratio (compound peak area/internal standard peak area) was plotted against time and the slope of the line determined to give the elimination rate constant [k=(−1)(slope)]. The half life (t1/2 in minutes) and the in vitro intrinsic clearance (CLint in μL/min/mg protein) values were calculated according to the following equations, where V=incubation volume in μL/mg protein: […]

[5] = tested on: IL6-induced hepcidin expression in HepG2 cells; experiment: IL6-induced hepcidin expression in HepG2 hepatoma cells; format: cell-based, human; details: pretreatment; data not shown
Description: HepG2 cells pretreated with compound 13 (5-625 nM) or vehicle for 30 min. were incubated with IL6 (50 ng/mL) for 1.5 h. Cells were harvested, and hepcidin mRNA and 18S rRNA levels were measured by quantitative RT-PCR. Changes in gene expression were normalized to 18S ribosomal RNA levels using the relative cycle threshold method.

[6] = Plasma pharmacokinetics after single oral administration; format: in vivo; details: C57B16, mouse, oral 3 mg/kg
Description: (§1) The pharmacokinetics of compound 70 was evaluated after a single oral administration (3 mg/kg) in male C57B16 mice on a commercial rodent diet and water ad libitum prior to the study. Compound plasma levels were determined by LC-MS/MS and the pharmacokinetic parameters were determined using WinNonlin software (Pharsight Co., Mountain View, Calif.). Dosing solutions (0.6 mg/mL) were prepared in a vehicle comprising 2% hydropropyl-β-cyclodextrin in phosphate-buffered saline (PBS). Each time point (pre-dose, 15, 30, 60, 120, 240, 360, 480 and 1440 min post-dose) was dosed as N=3. Each blood sample was collected via cardiac puncture after euthanasia with CO2 and placed in chilled tubes containing sodium heparin. Samples were centrifuged at 4° C. at 13,000 rpm for 5 min followed by extracted with acetonitrile and then analyzed.
as §1, with “13.HCl” for “compound 70”

[7] = Plasma pharmacokinetics after single bolus intraperitoneal administration; format: in vivo, C57B16 mice; details: C57B16, mouse, Table 3, male mice, IP 3 mg/kg; for Tmax: read-out: tmax
Description: as §1, with “13.HCl” for “compound 70”, “bolus intraperitoneal” for “oral”, “male and female” for “male”, “(pre-dose, 5, 10,” for “(pre-dose,”, “480,” for “360, 480 and”, “N=3/sex.” for “N=3.”
The pharmacokinetics of 44.HCl and 37.HCl were evaluated after a single bolus intraperitoneal administration (3 mg/kg) in male C57B16 mice on a commercial rodent diet and water ad libitum prior to the study. Compound plasma levels were determined by LC-MS/MS and the pharmacokinetic parameters were determined using WinNonlin software (Pharsight Co., Mountain View, Calif.). Dosing solutions (0.6 mg/mL) were prepared in a vehicle comprising 2% hydropropyl-β-cyclodextrin in phosphate-buffered saline (PBS). Each time point (pre-dose, 5, 10, 15, 30, 60, 120, 240, 480, 1440 min post-dose) was dosed as
N=3/sex. Each blood sample was collected via cardiac puncture after euthanasia with CO2 and placed in chilled tubes containing sodium heparin. Samples were centrifuged at 4° C. at 13,000 rpm for 5 min followed by extracted with acetonitrile and then analyzed.

[8] = approximate IC50, cellular ELISA, murine pulmonary artery smooth muscle cells, read-out: IC50 for inhibition of BMP-induced phosphorylation of SMAD1/5/8

AUC(0-inf) [7]: 207 ng·h/mL
Cmax [7]: 290 nM
half-life [7]: 2.2 h
Tmax [7]: < 0.25 h
Compound: c1ccc2c(-c3cnn4cc(-c5ccc(N6CCNCC6)cc5)ccc34)ccnc2c1 [37•HCl, 4-[6-(4-Piperazin-1-ylphenyl)pyrazolo[1,5-a]pyridin-3-yl]-quinoline]

AUC(0-inf) ([6]; Table 4, male mice): 143 ng·h/mL
Cmax ([6]; Table 4, male mice): 100 nM
Tmax ([6]; Table 4, male mice): 0.25 h
half-life ([6]; Table 4, male mice): 1.7 h
Compound: OC1(c2ccc(-c3cnc4c(-c5ccnc6ccccc56)cnn4c3)cc2)CCNCC1 [Compound 70, 4-(4-(3-(quinolin-4-yl)pyrazolo[1,5-a]pyrimidin-6-yl)phenyl)piperidin-4-ol]

AUC(0-inf) [7]: 583 ng·h/mL
Cmax [7]: 660 nM
half-life [7]: 1.4 h
Tmax [7]: < 0.25 h
Compound: COC1(c2ccc(-c3cnc4c(-c5ccnc6ccccc56)cnn4c3)cc2)CCNCC1 [44•HCl, 4-(6-(4-(4-methoxypiperidin-4-yl)phenyl)pyrazolo[1,5-a]pyrimidin-3-yl)quinoline]

The remaining lines, values behind:

Compound: c1cc(-c2cnn3cc(-c4ccc(OCCN5CCCCC5)cc4)cnc23)ccn1 [Dorsomorphin, reference compound]
IC50 ([1]; FIG. 1, approximate, read-out: functional IC50, BMP4-induced SMAD1/5/8 phosphorylation): ~400 nM
IC50 [2]: ~500 nM
increase of serum iron levels [3]: over 60%
half-life at 3 μM ([4]; read-out: half-life (t1/2) in mouse liver microsomes): 0.173 h
microsomal CLint at 3 μM ([4]; read-out: intrinsic clearance (CLint) in mouse liver microsomes): 133 ± 6.6 µL/min/mg

Compound: COc1ccc(-c2ccc3c(-c4ccnc5ccccc45)cnn3c2)cc1 [4-OMe-Ph, 4-quinolinyl, H, CH, N, 4-[6-(4-Methoxyphenyl)pyrazolo[1,5-a]pyridin-3-yl]quinoline]
IC50 [1, 8]: < 500 nM

Compound: COc1ccc(-c2cnc3c(-c4ccnc5ccccc45)ccn3c2)cc1 [4-OMe-Ph, 4-quinolinyl, H, N, CH, 4-[3-(4-Methoxyphenyl)pyrrolo[1,2-a]pyrimidin-8-yl]quinoline]
IC50 [1, 8]: > 20000 nM

Compound: C[C@@H]1C[C@@H]([C@H](O)CC2CC(=O)NC(=O)C2)C(=O)[C@@H](C)C1 [cycloheximide, reference compound]
ability of IL6 to induce hepcidin gene expression [5]: did not block the ability of IL6 to induce hepcidin gene expression

Compound: Cl.c1ccc2c(-c3cnn4cc(-c5ccc(N6CCNCC6)cc5)cnc34)ccnc2c1 [13•HCl, 4-[6-(4-piperazin-1-ylphenyl)pyrazolo[1,5-a]pyrimidin-3-yl]quinoline hydrochloride salt]
AUC(0-inf) ([6]; Table 5, male mice): 919 ng·h/mL
Cmax ([6]; Table 5, male mice): 690 nM
Tmax ([6]; Table 5, male mice): 1 h
half-life ([6]; Table 5, male mice): 1.1 h

Compound: COC(=O)c1cc(-c2ccnc3ccccc23)c2ncc(-c3ccc(OC)cc3)cn12 [4-OMe-Ph, 4-quinolinyl, H, N, CCO2Me, Methyl 3-(4-methoxyphenyl)-8-quinolin-4-yl-pyrrolo[1,2-a]pyrimidine-6-carboxylate]
IC50 [1, 8]: > 20000 nM

Compound: COc1ccc(-c2cnc3c(-c4ccncc4)cnn3c2)cc1 [4-OMe-Ph, 4-Py, H, N, N, 6-(4-Methoxyphenyl)-3-pyridin-4-yl-pyrazolo[1,5-a]pyrimidine]
IC50 [1, 8]: > 1000 nM
